Reference: patent US12121522B2, “Methods of treating cancer with an mTOR inhibitor” (Revolution Medicines, Inc., priority 2022, dated 2024)
Several values for one entry are separate records, joined by “and”; a condition that tells them apart may be missing. Equal values may be shown once.

What was measured:
[1] = system: BXF 2211 TSC1^-/- bladder cancer; assay: BXF 2211 bladder cancer xenograft; assay type: in vivo, mouse
Protocol: The antitumor activity of RMC-5552 as a single agent against tumors predicted to be dependent on the mTOR pathway and/or bearing specific PI3K/mTOR pathway-activating mutations (i.e., PIK3CA^mut, phosphatase and tensin homolog [PTEN^LOF], or co-mutation of both and tuberous sclerosis complex [TSC^LOF]) was evaluated in selected CDX and/or PDX models
Table 1. RMC-5552 was administered IP once weekly at 1, 3, 10, and 30 mg/kg. In the breast cancer MCF7 PIK3CA^[…] model, a higher dose of 50 mg/kg once weekly and an alternate dose regimen of 30 mg/kg every 10 days were also evaluated.

tumor p4EBP1 = assay: PK-pharmacodynamics of tumor p4EBP1 and pS6RP in MCF7 tumor-bearing mice; assay type: in vivo, mouse
Excerpt: FIGS. 4A-4C show Pharmacokinetic-Pharmacodynamic Profile for RMC-5552 Modulation of Tumor p4EBP1 and pS6RP in MCF7 Tumor Bearing Athymic Nude Mice. Abbreviations: IP=intraperitoneal; p4EBP1=phosphorylated eukaryotic translation initiation factor 4E-binding protein 1; PK=pharmacokinetic; pS6RP=phosphorylated S6 ribosomal protein; u=unbound. […] Data represent means±standard errors (n=3).
Colors of symbols denote time of tissue harvest following IP administration of a single dose of RMC-5552. […] Data represent means standard errors (n=3).
The in vivo PK-pharmacodynamic relationship for inhibition of activated mTOR pathway signaling of RMC-5552 as a single agent was determined in the breast cancer MCF7 and HCC-1954 PIK3CA mutant CDX models.
Consistent with inhibition of mTORC1 signaling in vitro, IP administration of RMC-5552 to nude mice produced a dose and plasma concentration-dependent-inhibition of tumor p4EBP1 and pS6RP (a direct substrate of P70S6K) in PI3K mutant breast cancer MCF7 xenograft models FIG. 5. Inhibition of p4EBP1 was maximal at 24 to 48 hours after treatment.

4EBP3 mRNA expression = 4EBP3 mRNA expression in whole blood; assay type: in vivo, human; settings: cohorts treated with at least 3.0 mg; sustained over a 6-hour period
Excerpt: Whole blood was collected from all subjects in dose escalation at CID1 prior to dosing, and 6 timepoints after EOI. In each sample, 4EBP3 mRNA expression was quantified as a pharmacodynamic indicator of mTORC1 inhibition.

[2] = system: advanced relapsed/refractory solid tumors; assay: Clinical efficacy (RECIST v1.1), study RMC-5552-001; assay type: in vivo, human
Protocol: Refer to FIG. 7 for a waterfall plot of best response in subjects treated at majority dose of 6 mg or 8 mg IV weekly (one hour infusion).
Subjects were evaluated at doses of 6 mg and higher. […] One patient discontinued treatment due to clinical progression without post-baseline scans. Three patients experienced radiographic progressive disease (PD).

ctDNA (mean VAF) = assay: ctDNA molecular response (Guardant Health algorithm); assay type: in vivo, human
Protocol: The mean±SEM of fractional change in mean VAF from C1D1 to C3D1 was determined by the Guardant Health Molecular Response Algorithm. […] Change in ctDNA is presented as mean±SEM of % change in mean VAF from C1D1 to C3D1. […] The results presented in FIGS. 8 and 9, supported by preclinical data, indicate that the dose range of 6 mg to 12 mg represents a “steep” dose-exposure-response relationship.

[3] = 13 efficacy-evaluable patients at ≥6 mg
[4] = 27 efficacy-evaluable subjects, majority doses 6 mg or 8 mg IV weekly
[5] = 67F NSCLC STK11, TSC2, KRAS L19F, 8 mg QW
[6] = endometrial PIK3CA, PTEN, TSC2, 8 mg QW
[7] = uterine CaSarc TSC1 LOF, 10 mg single dose, 6 mg QW

CO[C@H]1C[C@@H]2CC[C@@H](C)[C@@](O)(O2)C(=O)C(=O)N2CCCC[C@H]2C(=O)O[C@H]([C@H](C)C[C@@H]2CC[C@@H](OC(=O)NCCOCCOCCOCCOCCOCCOCCOCCOCCC(=O)N3CCc4cc(Cn5nc(-c6ccc7oc(N)nc7c6)c6c(N)ncnc65)ccc4C3)[C@H](OC)C2)C[C@@H](O)[C@H](C)/C=C(\C)[C@@H](O)[C@@H](OC)C(=O)[C@H](C)C[C@H](C)/C=C/C=C/C=C/1C [RMC-5552]
tumor regression ([1]; 3 mg/kg IP QW): 91% regression | tumor regression ([1]; 10 mg/kg IP QW): 94% regression | maximum level of inhibition of p4EBP1 relative to control (tumor p4EBP1; MCF7, single IP dose): > 90% | EC50 (tumor p4EBP1; unbound plasma concentration, MCF7, read-out: in vivo EC50 for inhibition of p4EBP1): 0.22 nM | 4EBP3 mRNA expression in whole blood (4EBP3 mRNA expression): increased from baseline | best response of stable disease (SD), subjects [2, 3]: 8 | confirmed partial response (PR), subjects [2, 3]: 1 | discontinued due to clinical progression without post-baseline scans, patients [2, 3]: One | radiographic progressive disease (PD), patients [2, 3]: Three | Disease Control Rate (DCR) [2, 4]: 74.1% | subjects with confirmed partial response [2, 4]: one | subjects with stable disease as best response [2, 4]: 19 | RECIST reduction [2, 5]: 4% reduction | RECIST reduction ([2]; 76F NSCLC BRAF fusion, 10 mg single dose, 6 mg QW): 22% | reduction in sum of target lesions (RECIST), subject with confirmed PR ([2]; H&N (salivary gland) cancer, PTEN mutation, 12 mg single dose then 6 mg QW): 77.6% and 77% | subjects with Partial Response (PR) ([2]; cancer with PTEN mutation): 1 | CA125, nadir [2, 6]: to nadir of 254; 9+ months | CA125, peak [2, 6]: CA125 from peak of 1465 | RECIST reduction [2, 6]: 7% reduction | subjects with Partial Response (PR) ([2]; head and neck cancer, PTEN mutation): 1 | RECIST increase (mixed) ([2]; ovarian CA TSC1 LOF, 6 mg QW): 19% increase | reduction in CA125 ([2]; ovarian CA TSC1 LOF, 6 mg QW): 72% reduction in CA125 | reduction in FDG avidity by PET/CT ([2]; ovarian CA TSC1 LOF, 6 mg QW): Strong: 50% reduction in | reduction in tumor size, 1 subject ([2]; salivary gland cancer): 63% | RECIST reduction [2, 7]: 4.4% | reduction in CA125 [2, 7]: Strong: 37% reduction in | decrease in VAF (ctDNA (mean VAF); [5]): reduction in lesion; 31% | MR (molecular response) (ctDNA (mean VAF); [6]): SD; MR 64% | subjects with molecular response (ctDNA (mean VAF); of 6 subjects with SD as best response and a pathogenic mTOR pathway variant): 3 | molecular response (ctDNA (mean VAF); one subject on 12 mg initial dose): effective molecular complete response | MR (molecular response) (ctDNA (mean VAF); [7]): 91%
